Data taken from patent EP2066677B1, “PYRIDOOXAZEPINE PROGESTERON RECEPTOR MODULATORS” (N.V. Organon, priority 2006, dated 2008).

tested on: mature cyclic rats; assay: Ovulation inhibition in rat (in vivo progestagenic activity); details: 96 h, minimal active dose: level at which average number of ova is reduced by 60% relative to placebo, oral administration for 1 complete cycle (4 days), read-out: MAD
Method: Ovulation inhibition after oral administration of the compounds of the invention was studied in mature cyclic rats. Animals were treated with test compound (oral administration) for 1 complete cycle (4 days, from oestrus to pro-oestrus) and the number of ova in the oviduct was microscopically assessed at autopsy in the morning of the next (expected) oestrus. The average number of ova per rat was calculated; the minimal active dose (MAD) is defined as the level at which the average number of ova is reduced by 60% relative to placebo-treated animals.

| Structure (SMILES) | minimal effective dose |
| --- | --- |
| N#Cc1cc2c(cc1F)Oc1ccccc1[C@@H]1[C@@H](NC(=O)C(F)(F)F)CCCN21 (single isomer, unassigned) [Example 2, (-)-(cis)-N-(7-cyano-8-fluoro-1,3,4,14b-tetrahydro-2H-dibenzo[b,f]pyrido[1,2-d] [1,4]oxazepin-1-yl)-2,2,2-trifluoroacetamide] | 0.014 mg/kg |
| CC(=O)N[C@H]1CCCN2c3c(cc(F)c(C#N)c3Cl)Oc3cccc(F)c3[C@H]12 (single isomer, unassigned) [Example 6, (-)-(cis)-N-(6-chloro-7-cyano-8,14-difluoro-1,3,4,14b-tetrahydro-2H-dibenzo[b,f]pyrido[1,2-d][1,4]oxazepin-1-yl)acetamide] | < 0.02 mg/kg |
| N#Cc1c(F)cc2c(c1Cl)N1CCC[C@H](NC(=O)C(F)(F)F)[C@H]1c1cccc(F)c1O2 (single isomer, unassigned) [Example 7, (-)-(cis)-N-(6-chIoro-7-cyano-8,11-difluoro-1,3,4,14b-tetrahydro-2H-dibenzo[b,f]pyrido[1,2-d][1,4]oxazepin-1-yl)-2,2,2-trifluoroacetamide] | 0.025 mg/kg |
| C=Cc1cccc2c1N1CCC[C@H](NC(=O)C(F)(F)F)[C@H]1c1ccccc1O2 (single isomer, unassigned) [eutomer of example 54 of WO03/084963, reference compound] | > 4 mg/kg |
| N#Cc1c(F)cc2c(c1Cl)N1CCC[C@@H](NC(=O)C(F)(F)F)[C@@H]1c1ccccc1O2 [Example 3, (-)-(cis)-N-[6-chloro-7-cyano-8-fluoro-1,3,4,14b-tetrahydro-2H-dibenzo[b,f]pyrido[1,2-d][1,4]oxazepin-1-yl]-2,2,2-trifluoroacetamide] | 0.08 mg/kg |
| N#Cc1c(F)cc2c(c1C#N)N1CCC[C@@H](NC(=O)C(F)(F)F)[C@@H]1c1ccccc1O2 [Example 4, (-)-(cis)-N-(6,7-dicyano-8-fluoro-1,3,4,14b-tetrahydro-2H-dibenzo[b,f]pyrido [1,2-d][1,4]oxazepin-1-yl)-2,2,2-trifluoroacetamide] | 0.02 mg/kg |
| N#Cc1c(F)cc2c(c1Cl)N1CCC[C@@H](NC(=O)C(F)(F)F)[C@@H]1c1ccc(F)cc1O2 [Example 5, (-)-(cis)-N-(6-chloro-7-cyano-8,12-difluoro-1,3,4,14b-tetrahydro-2H-dibenzo[b,f]pyrido[1,2-d][1,4]oxazepin-1-yl)-2,2,2-trifluoroacetamide] | ≤ 0.025 mg/kg |
| N#Cc1cc2c(cc1F)Oc1cccc(F)c1[C@H]1[C@H](NC(=O)C(F)(F)F)CCCN21 [Example 8, (-)-(cis)-N-(7-cyano-8,14-difluoro-1,3,4,14b-tetrahydro-2H-dibenzo[b,f]pyrido [1,2-d][1,4]oxazepin-1-yl)-2,2,2-trifluoroacetamide] | 0.01 mg/kg |
| N#Cc1c(F)cc2c(c1Cl)N1CCC[C@@H](NC(=O)C(F)(F)F)[C@@H]1c1c(F)cccc1O2 [Example 9, (-)-(cis)-N-(6-chloro-7-cyano-8,14-difluoro-1,3,4,14b-tetrahydro-2H-dibenzo [b,f]pyrido[1,2-d][1,4]oxazepin-1-yl)-2,2,2-trifluoroacetamide] | < 0.02 mg/kg |
